Laboratory results as given in ChEMBL document CHEMBL4177534, “Discovery and evaluation of 1H-pyrrolo[2,3-b]pyridine based selective and reversible small molecule BTK inhibitors for the treatment of rheumatoid arthritis” (Bioorg Med Chem Lett, 2017).

Columns and labels:
Type in all cases: functional
Parameters in all cases: scale not given: the % may be the effect or the level left
[1] = system: Mus musculus; assay: Ex-vivo inhibition of BTK in C57BL/6J mouse assessed as anti-mouse IgD antibody stimulated BCR mediated CD69 level in whole blood isolated from 100 mg/kg, po bid treated mouse measured after 6 hrs post first dose by flow cytometry relative to control
[2] = system: Mus musculus; assay: Ex-vivo inhibition of BTK in C57BL/6J mouse assessed as anti-mouse IgD antibody stimulated BCR mediated CD69 level in whole blood isolated from 30 mg/kg, po bid treated mouse measured after 2 hrs post first dose by flow cytometry relative to control
[3] = system: Mus musculus; assay: Ex-vivo inhibition of BTK in C57BL/6J mouse assessed as anti-mouse IgD antibody stimulated BCR mediated CD69 level in whole blood isolated from 100 mg/kg, po bid treated mouse measured after 24 hrs post first dose by flow cytometry relative to control
[4] = system: Mus musculus; assay: Ex-vivo inhibition of BTK in C57BL/6J mouse assessed as anti-mouse IgD antibody stimulated BCR mediated CD69 level in whole blood isolated from 10 mg/kg, po bid treated mouse measured after 2 hrs post first dose by flow cytometry relative to control

`CCN1CCN(Cc2ccc(-c3cc4c(-c5cccc(N6CCOc7cc(C8CC8)cc(F)c7C6=O)c5CO)ccnc4[nH]3)nc2)CC1` was tested, and the Activity [1] was 83%, the Activity [2] was 45% and the Activity [3] was 83%. It also gave an Activity [4] of 48%.
